Assay results taken from US5538834A, “Blocked photographically useful compounds for use with peroxide-containing processes” (Eastman Kodak Company, priority 1994, dated 1996).
One block for each compound: values may come before it.

Assays:
Type in all cases: physicochemical
[1] = Deblocking / dye release from ballasted blocked filter dye coating in alkaline buffer flow cell (Example 2); conditions: for % reaction after 400 sec.: 6.66667 min
Protocol: DOC Gelatin (2700 mg/m^2)
FILTER DYE LAYER Gelatin (3780 mg/m^2)
bis(vinylsulfonylmethyl)ether
FILMBASE polyacetate-butyrate
Coating strips were suspended in a flow cell while alkaline buffer solutions at 40° C. were passed through it. As deblocking proceeded, the yellow color of the strips was reduced as the water-solublefilter dye was released and washed out of the film.

[2] = Accelerated keeping test of coatings, raw stock stability (Example 2); conditions: 2 weeks at 50° C. and 50% relative humidity; 20160 min
From the text: Coatings containing compound 32 as described above were also subjected to accelerated keeping tests to determine raw stock stability.

[3] = Thermal stability: retained blocked developing agent by HPLC after incubation (Examples 3-5); conditions: 1 week at 100° F. and 50% relative humidity, 10080 min
Protocol: Blocked p-phenylenediamine developing agents 1, 3 and 6 were incorporated in photographic elements and evaluated for image dye formation activity and stability under storage conditions. The photographic elements were prepared as follows. The developing agents were dissolved in a high vapor pressure organic solvent (ethyl acetate for compounds 1 and 6, cyclohexanone for compound 3). The solutions were subsequently emulsified in aqueous gelatin using Alkanol-XC (Du Pont) as a dispersing aid. The dispersions were formulated such that the developing agents were initially present at 3% by weight, gelatin at 4% by weight and Alkanol-XC at 0.4% by weight. The initial slurries were emulsified by passing the mixtures through a colloid mill using known procedures. The organic solvents were then removed by evaporation.
Sets of strips were incubated for 1 week at 100° F. and 50% relativ humidity, and then evaluated by high performance liquid chromatography for amount of retained blocked developing agent. Sensitometry was obtained for step-tablet white-light exposures by contacting the strips with an activator solution at 77° F. The activator solution had the following composition:
The imaging activity and thermal stability of the exemplary blocked developing agents are given in Table V. The thermal stability denotes the percent retention, that is, the relative amount of blocked developing agent remaining after incubation, relative to the amount of developing agent initially coated.

[4] = Ester cleavage rate in solution without and with hydrogen peroxide (Example 1); conditions: pH 10 solution, 25° C., 5% CH3CN aqueous solution
Protocol: ^a 5% CH3 CN aqueous solution
nonionic surfactant micellar solution
^c pH 10 solution, 25° C.

Structure (SMILES): CCCCCCCCCCCCCCCCS(=O)(=O)Nc1ccc(C(=O)Nc2cc(COC(=O)Nc3cc(N(C)C)ccc3N=Nc3cccc(C(=O)O)c3)ccc2OC(=O)CC)cc1 [compound 32]
t1/2 ([1]; pH 10, 0.2 N H2O2, 40° C.): 3.67 min
% reaction after 400 sec. ([1]; pH 10, 0.2 N H2O2, 40° C.): 77%
t1/2 ([1]; pH 10, no H2O2, 40° C.): very long
% reaction after 400 sec. ([1]; pH 10, no H2O2, 40° C.): 3%
t1/2 ([1]; pH 10.7, 0.2 N H2O2, 40° C.): 1.17 min
% reaction after 400 sec. ([1]; pH 10.7, 0.2 N H2O2, 40° C.): 100%
t1/2 ([1]; pH 10.7, no H2O2, 40° C.): 13 min
% reaction after 400 sec. ([1]; pH 10.7, no H2O2, 40° C.): 31%
recovery after storage [2]: greater than 93%

Structure (SMILES): CCC(=O)Oc1ccc(COC(=O)Nc2ccc(N(CC)CCNS(C)(=O)=O)cc2C)cc1NC(=O)c1ccc(NS(C)(=O)=O)cc1 [compound 6]
Retention [3]: 100%

Structure (SMILES): CC(C)(C)C(=O)Oc1ccc([N+](=O)[O-])cc1 [p-nitrophenyl pivalate]
t1/2, 0.1M H2O2 ([4]; 0.1M H2O2): 0.0113 min
t1/2, no H2O2 ([4]; no H2O2): 95 min

Other lines, results leading:

Retention [3]: 100%
Structure (SMILES): CCN(CCNS(C)(=O)=O)c1ccc(NC(=O)OCc2ccc(OC(=O)C(C)(C)C)c(NS(C)(=O)=O)c2)c(C)c1 [compound 1]

Retention [3]: 98%
Structure (SMILES): CCN(CCNS(C)(=O)=O)c1ccc(NC(=O)OCc2ccc(OC(=O)C(C)C)c(NC(=O)CCCC(=O)O)c2)c(C)c1 [compound 3]
